The species named for assay [1] is Homo sapiens. In words: Selectivity ratio of Ki for human MC3R to Ki for human MC1R.
The target of assay [2] is T1, Melanocortin receptor 3 (Homo sapiens, UniProt P41968). In words: Displacement of [125I]-NDP-alpha-MSH from human MC3R expressed in HEK2936E cell membrane measured after 16 to 23 hrs by 1450 microbeta trilux scintillation proximity assay. In kind it is cell membranes. (Loss of bound radioactivity is the signal in a displacement assay; it reports binding, not function.)

The target in assay [3] is T2, Melanocyte-stimulating hormone receptor (Homo sapiens, UniProt Q01726). The assay can be described thus: Displacement of [125I]-NDP-alpha-MSH from human MC1R expressed in HEK2936E cell membrane measured after 16 to 23 hrs by 1450 microbeta trilux scintillation proximity assay. In kind it is cell membranes.
For assay [4], the species on record is Homo sapiens. In words: Selectivity ratio of Ki for human MC4R to Ki for human MC1R.
For assay [5], the target named is T3, Melanocortin receptor 4 (Homo sapiens, UniProt P32245). In words: Displacement of [125I]-NDP-alpha-MSH from human MC4R expressed in HEK2936E cell membrane measured after 16 to 23 hrs by 1450 microbeta trilux scintillation proximity assay. In kind it is cell membranes.
The species named for assay [6] is Homo sapiens. The assay can be described thus: Selectivity ratio of EC50 for human MC3R to EC50 for human MC1R.
For assay [7], the target named is T2, Melanocyte-stimulating hormone receptor. In words: Agonist activity at human MC1R expressed in HEK2936E cells assessed as cAMP production in presence of IBMX by time resolved fluorescence assay. In kind it is functional, cell-based. As to conditions: read-out: pEC50 (converted).
Assay [8] concerns the target T3, Melanocortin receptor 4. In words: Agonist activity at human MC4R expressed in HEK2936E cells assessed as cAMP production in presence of IBMX by time resolved fluorescence assay. It counts as functional, cell-based.
In assay [9] the target is T1, Melanocortin receptor 3. The assay can be described thus: Agonist activity at human MC3R expressed in HEK2936E cells assessed as cAMP production in presence of IBMX by time resolved fluorescence assay. In kind it is functional, cell-based. In general terms: Cyclic AMP is a second messenger, typically raised through Gs and lowered through Gi signalling.
Assay [10] is filed under the species Homo sapiens. The assay can be described thus: Selectivity ratio of EC50 for human MC4R to EC50 for human MC1R.

*1 amine or outer side, *2 acyl side, *3 side chain or, on linkers, in order; H or OH if unused. Where a SMILES comes first, the peptide text is derived from it. Bridges are numbered along the chain shown (N, C = ends). [ ]: non-standard residue; d: D form. X9 = O=C(NCCOCCOCCOCCNC(=O)OCC1C2CCc3nnn(CC(=O)N4CCCC[C@H]4C4(O)CN(C(=O)c5ccc(F)c(F)c5Nc5ccc(I)cc5F)C4)c3CCC21)OCC1C2CCc3c([*:1])nnc([*:2])c3CCC21; X8 = NCCNC(=O)OCC1C2CCc3c([*:1])nnc([*:2])c3CCC21; mXylylene = c1cc(C[*:1])cc(C[*:2])c1; oXylylene = c1ccc(C[*:2])c(C[*:1])c1; pXylylene = c1cc(C[*:2])ccc1C[*:1]; Nle = CCCC[C@H](N)C(=O)O

In general, Ki refers to the dissociation constant of the complex between target and ligand, obtained from inhibition or displacement.

T1 sequence (P41968 whole entry): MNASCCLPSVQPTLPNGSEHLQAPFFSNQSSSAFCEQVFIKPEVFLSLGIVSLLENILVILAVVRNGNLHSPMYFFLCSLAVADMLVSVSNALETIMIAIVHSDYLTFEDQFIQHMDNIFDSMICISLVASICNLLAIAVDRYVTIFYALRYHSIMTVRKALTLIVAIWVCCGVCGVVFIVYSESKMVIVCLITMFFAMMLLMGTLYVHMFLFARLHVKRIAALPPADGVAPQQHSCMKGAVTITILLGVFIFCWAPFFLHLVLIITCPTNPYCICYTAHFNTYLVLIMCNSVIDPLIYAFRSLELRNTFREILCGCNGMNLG
T3 sequence (P32245 whole entry): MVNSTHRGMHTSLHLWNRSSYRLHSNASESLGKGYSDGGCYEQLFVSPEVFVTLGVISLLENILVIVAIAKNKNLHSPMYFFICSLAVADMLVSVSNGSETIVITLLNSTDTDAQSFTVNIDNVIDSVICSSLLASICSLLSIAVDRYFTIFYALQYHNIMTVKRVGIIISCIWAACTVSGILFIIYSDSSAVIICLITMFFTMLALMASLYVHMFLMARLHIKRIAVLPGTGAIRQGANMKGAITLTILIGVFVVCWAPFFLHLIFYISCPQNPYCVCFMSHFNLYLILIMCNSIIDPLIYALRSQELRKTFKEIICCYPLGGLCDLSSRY
T2 sequence (Q01726 whole entry): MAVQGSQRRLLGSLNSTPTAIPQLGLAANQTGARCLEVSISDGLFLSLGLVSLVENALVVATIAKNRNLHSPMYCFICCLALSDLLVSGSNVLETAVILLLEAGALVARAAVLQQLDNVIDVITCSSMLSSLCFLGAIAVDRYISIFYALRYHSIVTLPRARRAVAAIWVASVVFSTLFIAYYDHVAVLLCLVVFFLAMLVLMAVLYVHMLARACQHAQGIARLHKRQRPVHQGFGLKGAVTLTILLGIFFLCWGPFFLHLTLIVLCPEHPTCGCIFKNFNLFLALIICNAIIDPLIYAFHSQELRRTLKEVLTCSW

As for `CCCC[C@@H]1NC(=O)[C@@H]2CSc3nnc(c4c3CCC3C(CC4)C3COC(=O)NCCOCCOCCNC(=O)CCOCCOCCOCCOCCOCCC(=O)NCCOCCOCCNC(=O)OCC3C4CCc5c6nnc(c5CCC43)SC[C@@H]3NC(=O)[C@H](CCCNC(=N)N)NC(=O)[C@H](CC(=O)O)NC(=O)[C@H](Cc4c[nH]c5ccccc45)NC(=O)[C@H](CCCNC(=N)N)NC(=O)[C@H](Cc4ccccc4)NC(=O)[C@H](Cc4cnc[nH]4)NC(=O)CNC(=O)[C@H](CCCC)NC(=O)[C@H](CS6)NC(=O)[C@H](CCCNC(=N)N)NC(=O)[C@H](Cc4c[nH]c5ccccc45)NC(=O)[C@H](CCCNC(=N)N)NC(=O)[C@H](Cc4ccccc4)NC(=O)[C@H](Cc4cnc[nH]4)NC3=O)SC[C@H](NC(=O)[C@H](CCCNC(=N)N)NC(=O)[C@H](CC(=O)O)NC(=O)[C@H](Cc3c[nH]c4ccccc34)NC(=O)[C@H](CCCNC(=N)N)NC(=O)[C@H](Cc3ccccc3)NC(=O)[C@H](Cc3cnc[nH]3)NC(=O)CNC1=O)C(=O)N[C@@H](Cc1cnc[nH]1)C(=O)N[C@@H](Cc1ccccc1)C(=O)N[C@@H](CCCNC(=N)N)C(=O)N[C@@H](Cc1c[nH]c3ccccc13)C(=O)N[C@@H](CCCNC(=N)N)C(=O)N2` (some centres not stated), the results for the Ratio Ki in the assay filed under Homo sapiens [1] and in the assay filed under Homo sapiens [4] were 25 and 79, respectively. Besides, the Ki on Melanocortin receptor 3 [2] was 10.2 nM; in assay [3], 0.417 nM; on Melanocortin receptor 4 [5] it was 33.1 nM.

As to `CCCC[C@@H]1NC(=O)[C@@H]2CSc3nnc(c4c3CCC3C(CC4)C3COC(=O)NCCNC(=O)CCOCCOCCOCCOCCOCCC(=O)NCCNC(=O)OCC3C4CCc5c6nnc(c5CCC43)SC[C@@H]3NC(=O)[C@H](CCCNC(=N)N)NC(=O)[C@H](CC(=O)O)NC(=O)[C@H](Cc4c[nH]c5ccccc45)NC(=O)[C@H](CCCNC(=N)N)NC(=O)[C@H](Cc4ccccc4)NC(=O)[C@H](Cc4cnc[nH]4)NC(=O)CNC(=O)[C@H](CCCC)NC(=O)[C@H](CS6)NC(=O)[C@H](CCCNC(=N)N)NC(=O)[C@H](Cc4c[nH]c5ccccc45)NC(=O)[C@H](CCCNC(=N)N)NC(=O)[C@H](Cc4ccccc4)NC(=O)[C@H](Cc4cnc[nH]4)NC3=O)SC[C@H](NC(=O)[C@H](CCCNC(=N)N)NC(=O)[C@H](CC(=O)O)NC(=O)[C@H](Cc3c[nH]c4ccccc34)NC(=O)[C@H](CCCNC(=N)N)NC(=O)[C@H](Cc3ccccc3)NC(=O)[C@H](Cc3cnc[nH]3)NC(=O)CNC1=O)C(=O)N[C@@H](Cc1cnc[nH]1)C(=O)N[C@@H](Cc1ccccc1)C(=O)N[C@@H](CCCNC(=N)N)C(=O)N[C@@H](Cc1c[nH]c3ccccc13)C(=O)N[C@@H](CCCNC(=N)N)C(=O)N2` (some centres not stated), the Ratio Ki in the assay filed under Homo sapiens [1] came to 17; in the assay filed under Homo sapiens [4], 47. Further, the figures for the Ki (on Melanocortin receptor 3 [2]; in [3]; at Melanocortin receptor 4 [5]) were 11.5 nM, 0.661 nM and 30.9 nM, respectively.

For `CCCC[C@@H]1NC(=O)[C@@H]2CSC/C(=N/OCC(=O)NCCOCCOCCOCCN=[N+]=[N-])CSC[C@H](NC(=O)[C@H](CCCNC(=N)N)NC(=O)[C@H](CC(=O)O)NC(=O)[C@H](Cc3c[nH]c4ccccc34)NC(=O)[C@H](CCCNC(=N)N)NC(=O)[C@H](Cc3ccccc3)NC(=O)[C@H](Cc3cnc[nH]3)NC(=O)CNC1=O)C(=O)N[C@@H](Cc1cnc[nH]1)C(=O)N[C@@H](Cc1ccccc1)C(=O)N[C@@H](CCCNC(=N)N)C(=O)N[C@@H](Cc1c[nH]c3ccccc13)C(=O)N[C@@H](CCCNC(=N)N)C(=O)N2`, the Ratio EC50 was 2 in the assay listed under Homo sapiens [6] and 65 in the assay filed under Homo sapiens [10]. The EC50 in [7] was 0.0468 nM; on Melanocortin receptor 4 [8], 3.02 nM; on Melanocortin receptor 3 [9] it was 0.105 nM. For the same compound, the Ratio Ki in the assay listed under Homo sapiens [1] was 14; in the assay filed under Homo sapiens [4], 79. The Ki at Melanocortin receptor 3 [2] was 5.5 nM; in assay [3], 0.389 nM; at Melanocortin receptor 4 [5], 30.9 nM.

Take `CCCC[C@@H]1NC(=O)[C@@H]2CSc3nnc(c4c3CCC3C(CC4)C3COC(=O)NCCOCCOCCOCCNC(=O)OCC3C4CCc5c6nnc(c5CCC43)SC[C@@H]3NC(=O)[C@H](CCCNC(=N)N)NC(=O)[C@H](CC(=O)O)NC(=O)[C@H](Cc4c[nH]c5ccccc45)NC(=O)[C@H](CCCNC(=N)N)NC(=O)[C@H](Cc4ccccc4)NC(=O)[C@H](Cc4cnc[nH]4)NC(=O)CNC(=O)[C@H](CCCC)NC(=O)[C@H](CS6)NC(=O)[C@H](CCCNC(=N)N)NC(=O)[C@H](Cc4c[nH]c5ccccc45)NC(=O)[C@H](CCCNC(=N)N)NC(=O)[C@H](Cc4ccccc4)NC(=O)[C@H](Cc4cnc[nH]4)NC3=O)SC[C@H](NC(=O)[C@H](CCCNC(=N)N)NC(=O)[C@H](CC(=O)O)NC(=O)[C@H](Cc3c[nH]c4ccccc34)NC(=O)[C@H](CCCNC(=N)N)NC(=O)[C@H](Cc3ccccc3)NC(=O)[C@H](Cc3cnc[nH]3)NC(=O)CNC1=O)C(=O)N[C@@H](Cc1cnc[nH]1)C(=O)N[C@@H](Cc1ccccc1)C(=O)N[C@@H](CCCNC(=N)N)C(=O)N[C@@H](Cc1c[nH]c3ccccc13)C(=O)N[C@@H](CCCNC(=N)N)C(=O)N2` (some centres not stated): the Ratio Ki worked out at 17 in the assay filed under Homo sapiens [1] and 41 in the assay filed under Homo sapiens [4]. The Ki at Melanocortin receptor 3 [2] was 37.2 nM; in [3] it was 2.24 nM; on Melanocortin receptor 4 [5] it was 91.2 nM.

Take `CCCC[C@@H]1NC(=O)[C@@H]2CSc3nnc(c4c3CCC3C(CC4)C3COC(=O)NCCN)SC[C@H](NC(=O)[C@H](CCCNC(=N)N)NC(=O)[C@H](CC(=O)O)NC(=O)[C@H](Cc3c[nH]c4ccccc34)NC(=O)[C@H](CCCNC(=N)N)NC(=O)[C@H](Cc3ccccc3)NC(=O)[C@H](Cc3cnc[nH]3)NC(=O)CNC1=O)C(=O)N[C@@H](Cc1cnc[nH]1)C(=O)N[C@@H](Cc1ccccc1)C(=O)N[C@@H](CCCNC(=N)N)C(=O)N[C@@H](Cc1c[nH]c3ccccc13)C(=O)N[C@@H](CCCNC(=N)N)C(=O)N2` (some centres not stated) (cyclo(CHFRWRC[Nle]GHFRWDR); linker 1-7 via X8): the Ratio Ki was found to be 115 in the assay filed under Homo sapiens [1] and 166 in the assay listed under Homo sapiens [4]. The results for the Ki (at Melanocortin receptor 3 [2]; in assay [3]; at Melanocortin receptor 4 [5]) were 0.631 nM, below 0.0055 nM and 0.912 nM, respectively.

As for `CCCC[C@@H]1NC(=O)[C@@H]2CSc3nnc(c4c3CCC3C(CC4)C3COC(=O)NCCOCCOCCOCCNC(=O)OCC3C4CCc5nnn(CC(=O)N6CCCC[C@H]6C6(O)CN(C(=O)c7ccc(F)c(F)c7Nc7ccc(I)cc7F)C6)c5CCC43)SC[C@H](NC(=O)[C@H](CCCNC(=N)N)NC(=O)[C@H](CC(=O)O)NC(=O)[C@H](Cc3c[nH]c4ccccc34)NC(=O)[C@H](CCCNC(=N)N)NC(=O)[C@H](Cc3ccccc3)NC(=O)[C@H](Cc3cnc[nH]3)NC(=O)CNC1=O)C(=O)N[C@@H](Cc1cnc[nH]1)C(=O)N[C@@H](Cc1ccccc1)C(=O)N[C@@H](CCCNC(=N)N)C(=O)N[C@@H](Cc1c[nH]c3ccccc13)C(=O)N[C@@H](CCCNC(=N)N)C(=O)N2` (some centres not stated) (cyclo(CHFRWRC[Nle]GHFRWDR); linker 1-7 via X9), the Ratio Ki in the assay filed under Homo sapiens [1] worked out at 24; in the assay listed under Homo sapiens [4] it was 79. Further, the values for the Ki (at Melanocortin receptor 3 [2]; in [3]; at Melanocortin receptor 4 [5]) were 51.3 nM, 2.14 nM and 170 nM, respectively.

For the compound `CCCC[C@@H]1NC(=O)[C@@H]2CSCc3cccc(c3)CSC[C@H](NC(=O)[C@H](CCCNC(=N)N)NC(=O)[C@H](CC(=O)O)NC(=O)[C@H](Cc3c[nH]c4ccccc34)NC(=O)[C@H](CCCNC(=N)N)NC(=O)[C@H](Cc3ccccc3)NC(=O)[C@H](Cc3cnc[nH]3)NC(=O)CNC1=O)C(=O)N[C@@H](Cc1cnc[nH]1)C(=O)N[C@@H](Cc1ccccc1)C(=O)N[C@@H](CCCNC(=N)N)C(=O)N[C@@H](Cc1c[nH]c3ccccc13)C(=O)N[C@@H](CCCNC(=N)N)C(=O)N2` (cyclo(CHFRWRC[Nle]GHFRWDR); linker 1-7 via mXylylene), the EC50 in assay [7] was 0.0871 nM; on Melanocortin receptor 3 [9] it was 0.309 nM. For the same compound, the Ki on Melanocortin receptor 3 [2] is 13.5 nM; in assay [3], 0.407 nM.

On to `CCCC[C@@H]1NC(=O)[C@@H]2CSCc3ccccc3CSC[C@H](NC(=O)[C@H](CCCNC(=N)N)NC(=O)[C@H](CC(=O)O)NC(=O)[C@H](Cc3c[nH]c4ccccc34)NC(=O)[C@H](CCCNC(=N)N)NC(=O)[C@H](Cc3ccccc3)NC(=O)[C@H](Cc3cnc[nH]3)NC(=O)CNC1=O)C(=O)N[C@@H](Cc1cnc[nH]1)C(=O)N[C@@H](Cc1ccccc1)C(=O)N[C@@H](CCCNC(=N)N)C(=O)N[C@@H](Cc1c[nH]c3ccccc13)C(=O)N[C@@H](CCCNC(=N)N)C(=O)N2` (cyclo(CHFRWRC[Nle]GHFRWDR); linker 1-7 via oXylylene), for which the EC50 was 0.195 nM in assay [7] and 0.347 nM on Melanocortin receptor 3 [9]. Also, the Ki on Melanocortin receptor 3 [2] was 26.3 nM; in assay [3], 1.58 nM.

With `CCCC[C@@H]1NC(=O)[C@@H]2CSCc3ccc(cc3)CSC[C@H](NC(=O)[C@H](CCCNC(=N)N)NC(=O)[C@H](CC(=O)O)NC(=O)[C@H](Cc3c[nH]c4ccccc34)NC(=O)[C@H](CCCNC(=N)N)NC(=O)[C@H](Cc3ccccc3)NC(=O)[C@H](Cc3cnc[nH]3)NC(=O)CNC1=O)C(=O)N[C@@H](Cc1cnc[nH]1)C(=O)N[C@@H](Cc1ccccc1)C(=O)N[C@@H](CCCNC(=N)N)C(=O)N[C@@H](Cc1c[nH]c3ccccc13)C(=O)N[C@@H](CCCNC(=N)N)C(=O)N2` (cyclo(CHFRWRC[Nle]GHFRWDR); linker 1-7 via pXylylene), the EC50 is 0.0891 nM in assay [7] and 0.331 nM at Melanocortin receptor 3 [9]. In addition, the results for the Ki (at Melanocortin receptor 3 [2]; in assay [3]) were 13.8 nM and 0.245 nM, respectively.

The record behind these values is ChEMBL document CHEMBL5104192, “Late-Stage Functionalization with Cysteine Staples Generates Potent and Selective Melanocortin Receptor-1 Agonists” (J Med Chem, 2022).
